Measurements published in publication PMC6401633, “Evidence for Effective Multiple K^+-Current Inhibitions by Tolvaptan, a Non-peptide Antagonist of Vasopressin V2 Receptor” (Frontiers in Pharmacology, 2019).

Molecular target: T1, large-conductance Ca2+-activated K+ (BKCa) channel (Rattus norvegicus, UniProt Q62976)
T1 construct: gene Kcnma1; native channel in inside-out membrane patches of GH3 cells
Assay: single-channel patch clamp, inside-out; open probability […] to […] at […], no significant change at […]
Assay type: cell-based

T1 sequence (Q62976 whole entry): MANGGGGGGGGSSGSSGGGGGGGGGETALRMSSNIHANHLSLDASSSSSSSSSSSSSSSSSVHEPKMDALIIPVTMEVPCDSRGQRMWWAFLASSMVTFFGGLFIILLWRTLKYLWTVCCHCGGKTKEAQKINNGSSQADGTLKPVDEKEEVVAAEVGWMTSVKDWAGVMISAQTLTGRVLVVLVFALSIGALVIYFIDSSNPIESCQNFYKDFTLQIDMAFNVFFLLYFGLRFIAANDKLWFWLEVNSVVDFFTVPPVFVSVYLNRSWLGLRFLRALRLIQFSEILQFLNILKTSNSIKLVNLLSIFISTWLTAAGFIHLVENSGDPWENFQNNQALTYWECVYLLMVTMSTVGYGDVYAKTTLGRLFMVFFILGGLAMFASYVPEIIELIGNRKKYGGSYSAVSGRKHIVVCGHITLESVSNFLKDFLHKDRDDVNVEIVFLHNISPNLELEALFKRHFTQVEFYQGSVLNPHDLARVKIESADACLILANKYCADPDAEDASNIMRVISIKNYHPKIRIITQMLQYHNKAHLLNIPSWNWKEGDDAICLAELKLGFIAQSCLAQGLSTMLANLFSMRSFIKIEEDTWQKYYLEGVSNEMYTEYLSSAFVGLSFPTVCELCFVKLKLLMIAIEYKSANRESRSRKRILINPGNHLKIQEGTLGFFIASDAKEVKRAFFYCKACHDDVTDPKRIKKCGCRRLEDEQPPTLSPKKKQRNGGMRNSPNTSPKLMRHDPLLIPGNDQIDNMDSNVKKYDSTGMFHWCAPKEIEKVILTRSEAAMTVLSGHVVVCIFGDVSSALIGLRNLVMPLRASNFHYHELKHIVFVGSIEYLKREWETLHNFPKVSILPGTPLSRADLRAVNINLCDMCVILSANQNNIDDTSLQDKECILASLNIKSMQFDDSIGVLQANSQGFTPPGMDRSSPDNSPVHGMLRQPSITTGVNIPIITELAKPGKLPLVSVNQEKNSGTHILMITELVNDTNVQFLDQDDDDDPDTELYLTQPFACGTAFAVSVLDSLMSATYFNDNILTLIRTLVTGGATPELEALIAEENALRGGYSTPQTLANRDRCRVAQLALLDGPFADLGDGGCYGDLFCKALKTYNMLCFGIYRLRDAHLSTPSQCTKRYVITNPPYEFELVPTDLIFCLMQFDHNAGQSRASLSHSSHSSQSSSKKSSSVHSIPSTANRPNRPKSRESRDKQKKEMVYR

In the case of Cc1ccccc1C(=O)Nc1ccc(C(=O)N2CCCC(O)c3cc(Cl)ccc32)c(C)c1 (stereo not shown) [TLV, N-[4-[(7-chloro-2,3,4,5-tetrahydro-5-hydroxy-1H-1-benzazepin-1-yl)carbonyl]-3-methylphenyl]-2-methylbenzamide], the “single-channel patch clamp, inside-out; open probability 0.0191 to 0.0143 at 30” value is reported as 30 µM.
